Read-outs that look alike come from different tables or passages of the source.

The values below come from patent US6046235A, “Sulfur-containing amino acid derivatives” (Santen Pharmaceutical Co., Ltd., priority 1996, dated 2000).

The subject of assay [1] is LTA4 hydrolase. As to conditions: literature; cited from earlier work.
Assay [2] concerns collagen-induced arthritis model. As to conditions: J. Med. Chem., 37, 3197-3199 (1994); cited from earlier work.
Assay [3] has as its target T1, LTA4 hydrolase (Cavia porcellus, UniProt P19602).
T1 construct: Lungs were excised from a Hartley guinea pig; from tissue; host or cells: Hartley guinea pig lung, 100,000×g supernatant, 40-70% ammonium sulfate fraction, dialyzed
T1 sequence (P19602 1-611): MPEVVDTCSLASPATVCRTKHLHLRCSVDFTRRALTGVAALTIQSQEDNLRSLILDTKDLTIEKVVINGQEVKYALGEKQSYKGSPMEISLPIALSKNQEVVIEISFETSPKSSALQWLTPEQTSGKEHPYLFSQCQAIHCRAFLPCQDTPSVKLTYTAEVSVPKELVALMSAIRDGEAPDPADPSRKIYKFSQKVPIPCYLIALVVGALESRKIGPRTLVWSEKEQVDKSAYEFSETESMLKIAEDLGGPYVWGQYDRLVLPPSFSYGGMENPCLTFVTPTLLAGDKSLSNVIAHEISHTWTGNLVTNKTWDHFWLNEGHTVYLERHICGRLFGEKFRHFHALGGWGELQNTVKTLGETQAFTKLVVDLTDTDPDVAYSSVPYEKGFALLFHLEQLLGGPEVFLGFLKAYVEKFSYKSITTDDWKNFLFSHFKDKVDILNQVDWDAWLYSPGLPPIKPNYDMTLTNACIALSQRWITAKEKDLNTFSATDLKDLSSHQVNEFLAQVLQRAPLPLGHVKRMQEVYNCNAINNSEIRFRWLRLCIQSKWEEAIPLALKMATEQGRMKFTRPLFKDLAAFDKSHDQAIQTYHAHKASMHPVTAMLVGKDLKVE
Description: LTA4 hydrolase inhibition (LTB4 formed from LTA4, guinea pig lung enzyme preparation). It counts as biochemical. As to the method: Effects of the present compounds on LTA4 hydrolase were examined according to the method described in the literature.
Lungs were excised from a Hartley guinea pig (body weight: 330 g). The lungs were homogenized in phosphoric acid buffer (50 mM, pH 7.4, containing 1 mM ethylenediaminetetraacetic acid (EDTA) and 1 mM dithiothreitol (DTT) having weight three times that of the lungs under ice-cooling. The homogenate was centrifuged at low speed (800×g) for 20 minutes, centrifuged at high speed (10,000×g) for 20 minutes and ultracentrifuged (100,000×g) for 60 minutes to give a supernatant. The supernatant was brought to 40% saturation by adding a saturated aqueous ammonium sulfate solution (pH 7.0-7.2, containing 1 mM DTT) dropwise under ice-cooling and centrifuged at high speed (10,000×g) for 20 minutes. The resulting supernatant was brought to 70% saturation by adding a saturated aqueous ammonium sulfate solution (pH 7.0-7.2, containing 1 mM DTT) dropwise and centrifuged at high speed (10,000×g) for 20 minutes. The obtained pellet was dissolved in 2 ml of Tris-acetic acid buffer (20 mM, pH 7.8, containing 1 mM DTT) and dialyzed in 2 liters of the solution to give the enzyme preparation.
LTA4 used, which is the substrate, was prepared by hydrolyzing LTA4 methyl ester and dissolved in ethanol.
In order to examine effects of the present compounds on the enzyme preparation, reactions were performed under the following condition using mixed solutions consisting of the composition shown in Table 1.
HEPES buffer 50 mM, pH 7.8
Enzyme preparation 0.4-0.6 mg protein
Aqueous DTT solution 3 mM
The above-mentioned solution (50 μl ) was incubated at 37° C. for one minute. To the reaction mixture was added 100 μl of a mixed liquid of acetonitrile-ethanol-acetic acid (150:50:3, volume ratio) under ice-cooling. The mixture was allowed to stand at -20° C. for 30 minutes and centrifuged at high speed (10,000×g) for five minutes to give a supernatant. An amount of LTB4 produced in the supernatant was measured by high-speed liquid chromatography.
The degree of the inhibitory effect of each test compound on LTA4 hydrolase is expressed by the inhibition rate calculated by the following equation. [formula]
A: amount of LTB4 formed in the absence of the test compound
B: amount of LTB4 formed in the presence of the test compound
Experiments were carried out under the same conditions as those of the above-mentioned "Pharmacological Test".

On to `O=C(O)c1cccc(C2CO2)c1` (centres unmarked) [3-oxiranylbenzoic acid], for which, in assay [1], the “inhibitory effect on LTA4 hydrolase (in words)” value was “inhibitory effects on LTA4 hydrolase”.

For the molecule `O=C(O)C1(c2ccc3c(c2)OC[C@H](Cc2ccc(-c4ccccc4)cc2)[C@H]3O)CCCC1` [(+)-1-(3S, 4R)-[3-(4-phenylbenzyl)-4-hydroxychroman-7-yl]cyclopentanecarboxylic acid], the “inhibitory effect on LTA4 hydrolase (in words)” value in assay [1] is given as “inhibitory effect on LTA4 hydrolase”. Moreover, in assay [2], the “onset of arthritis (in words)” value is listed as “inhibited the onset of arthritis”.

For the molecule `C[C@H](CS)C(=O)N[C@@H](CSC(C)(C)c1ccc(C2CCCCC2)cc1)C(=O)O` [Compound No. 2-39, (2R)-3-[(4-Cyclohexyl-α,α-dimethyl)benzylthio]-2-[(2S)-3-mercapto-2-methylpropionylamino]propionic acid], in assay [3] (Table 2, guinea pig lung enzyme preparation, LTA4 63 μM, 37° C., one minute, pH 7.8, read-out: IC50 (concentration required to inhibit LTA4 hydrolase by 50%)), the IC50 is 0.055 µM.

On to `CC(C)(C)c1ccc(CSC[C@H](NC(=O)C(CS)Cc2ccccc2)C(=O)O)cc1` (some centres unmarked) [known compound [II], reference compound], for which the “inhibitory effect on LTA4 hydrolase relative to that of the present compound (No. 2-12)” value in assay [3] (Comparison Test, ratio to compound No. 2-12) is listed as “about 1/100”. Further, the “inhibitory effect on LTA4 hydrolase relative to those of the present compounds” value in assay [3] (Comparison Test, ratio to the present compounds) was “one tenth”. Further, in assay [3] (Comparison Test, same conditions as Pharmacological Test, read-out: IC50), the IC50 amounted to 4.5 µM.

For the molecule `CC(CS)C(=O)N[C@@H](CSCc1ccccc1)C(=O)O` (some centres unmarked) [known compound [I], reference compound], in assay [3] (Comparison Test, even at a concentration of 10^-5 M), the “inhibitory effect on LTA4 hydrolase” value was “little inhibitory effect”.
